Measurements taken from ChEMBL document CHEMBL5512642, “Novel triterpenoid pyrones, phthalimides and phthalates are selectively cytotoxic in CCRF-CEM cancer cells - Synthesis, potency, and mitochondrial mechanism of action” (Eur J Med Chem, 2024).
pIC50: −log10 of the molar value.

Columns and labels:
U2OS = experiment: Cytotoxicity against human U2OS cells assessed as reduction in cell viability incubated for 72 hrs by MTS assay; type: functional, cell-based
A549 = experiment: Cytotoxicity against human A549 cells assessed as reduction in cell viability incubated for 72 hrs by MTS assay; type: functional, cell-based; settings: A549, 72 h
[1] = Cytotoxicity against human BJ cells assessed as reduction in cell viability incubated for 72 hrs by MTS assay; type: toxicity, cell-based
K562 = experiment: Cytotoxicity against human K562 cells assessed as reduction in cell viability incubated for 72 hrs by MTS assay; type: functional, cell-based; settings: K562, 72 h
CCRF-CEM = experiment: Cytotoxicity against human CCRF-CEM cells assessed as reduction in cell viability incubated for 72 hrs by MTS assay; type: functional, cell-based
[2] = Cytotoxicity against human MRC5 cells assessed as reduction in cell viability incubated for 72 hrs by MTS assay; type: toxicity, cell-based
[3] = Cytotoxicity against human K562-Tax cells assessed as reduction in cell viability incubated for 72 hrs by MTS assay; type: functional, cell-based
CEM-DNR = experiment: Cytotoxicity against human CEM-DNR cells assessed as reduction in cell viability incubated for 72 hrs by MTS assay; type: functional, cell-based
HCT-116 = experiment: Cytotoxicity against human HCT-116 cells assessed as reduction in cell viability incubated for 72 hrs by MTS assay; type: functional, cell-based; settings: HCT-116, 72 h
HCT 116 TP53(-/-) = experiment: Cytotoxicity against human HCT116-p53-null cells assessed as reduction in cell viability incubated for 72 hrs by MTS assay; type: functional, cell-based

C=C(C)[C@@H]1CC[C@]2(C(=O)O)CC[C@]3(C)[C@H](CC[C@@H]4[C@@]5(C)Cc6c(C(F)(F)F)cc7c(c6C(C)(C)[C@@H]5CC[C@]43C)C(=O)N(c3ccccc3)C7=O)[C@@H]12
pIC50 (U2OS): < 4.30 | pIC50 (A549): < 4.30 | IC50 at 72 h [1]: > 50 µM | pIC50 (K562): < 4.30 | pIC50 (CCRF-CEM): < 4.30 | IC50 at 72 h [2]: > 50 µM | pIC50 [3]: < 4.30 | pIC50 (CEM-DNR): < 4.30 | pIC50 (HCT-116): < 4.30 | pIC50 (HCT 116 TP53(-/-)): < 4.30

C[C@H]1[C@H](C)CC[C@]2(C(=O)O)CC[C@]3(C)C(=CC[C@@H]4[C@@]5(C)Cc6c(C(F)(F)F)cc7c(c6C(C)(C)[C@@H]5CC[C@]43C)C(=O)N(c3ccccc3)C7=O)[C@H]12
pIC50 (U2OS): < 4.30 | pIC50 (A549): < 4.30 | IC50 at 72 h [1]: > 50 µM | pIC50 (K562): < 4.30 | pIC50 (CCRF-CEM): < 4.30 | IC50 at 72 h [2]: > 50 µM | pIC50 [3]: < 4.30 | pIC50 (CEM-DNR): < 4.30 | pIC50 (HCT-116): < 4.30 | pIC50 (HCT 116 TP53(-/-)): < 4.30

C=C(C)[C@@H]1CC[C@]2(C(=O)O)CC[C@]3(C)[C@H](CC[C@@H]4[C@@]5(C)CC(C(=O)C(F)(F)F)C(=O)C(C)(C)[C@@H]5CC[C@]43C)[C@@H]12 (some centres undefined)
pIC50 (U2OS): 4.52 | pIC50 (A549): 4.92 | IC50 at 72 h [1]: > 50 µM | pIC50 (K562): 4.89 | pIC50 (CCRF-CEM): 5.14 | IC50 at 72 h [2]: > 50 µM | pIC50 (HCT-116): 4.62 | pIC50 (HCT 116 TP53(-/-)): 4.52

C[C@H]1[C@H](C)CC[C@]2(C(=O)O)CC[C@]3(C)C(=CC[C@@H]4[C@@]5(C)Cc6c(C(F)(F)F)cc(=O)oc6C(C)(C)[C@@H]5CC[C@]43C)[C@H]12
pIC50 (U2OS): 4.64 | pIC50 (A549): 4.77 | IC50 at 72 h [1]: > 50 µM | pIC50 (K562): 4.64 | pIC50 (CCRF-CEM): 5.20 | IC50 at 72 h [2]: > 50 µM | pIC50 [3]: 4.68 | pIC50 (CEM-DNR): 4.71 | pIC50 (HCT-116): 4.60 | pIC50 (HCT 116 TP53(-/-)): 4.57

COC(=O)c1cc(C(F)(F)F)c2c(c1C(=O)OC)C(C)(C)[C@@H]1CC[C@]3(C)[C@H](CC[C@@H]4[C@H]5[C@H](C(C)C)CC[C@]5(C(=O)O)CC[C@]43C)[C@@]1(C)C2
pIC50 (U2OS): 4.96 | pIC50 (A549): < 4.30 | IC50 at 72 h [1]: > 50 µM | pIC50 (K562): < 4.30 | pIC50 (CCRF-CEM): 5.28 | IC50 at 72 h [2]: > 50 µM | pIC50 [3]: < 4.30 | pIC50 (CEM-DNR): < 4.30 | pIC50 (HCT-116): < 4.30 | pIC50 (HCT 116 TP53(-/-)): < 4.30

COC(=O)c1cc(C(F)(F)F)c2c(c1C(=O)OC)C(C)(C)[C@@H]1CC[C@]3(C)[C@H](CC=C4[C@@H]5[C@@H](C)[C@H](C)CC[C@]5(C(=O)O)CC[C@]43C)[C@@]1(C)C2
pIC50 (U2OS): 4.62 | pIC50 (A549): 4.77 | IC50 at 72 h [1]: > 50 µM | pIC50 (K562): 4.55 | pIC50 (CCRF-CEM): 5.29 | IC50 at 72 h [2]: > 50 µM | pIC50 [3]: < 4.30 | pIC50 (CEM-DNR): < 4.30 | pIC50 (HCT-116): 4.42 | pIC50 (HCT 116 TP53(-/-)): 4.59

CC(C)[C@@H]1CC[C@]2(C(=O)O)CC[C@]3(C)[C@H](CC[C@@H]4[C@@]5(C)CC(C(=O)C(F)(F)F)C(=O)C(C)(C)[C@@H]5CC[C@]43C)[C@@H]12 (some centres undefined)
pIC50 (U2OS): 4.60 | pIC50 (A549): 4.96 | IC50 at 72 h [1]: 43 µM | pIC50 (K562): 4.54 | pIC50 (CCRF-CEM): 5.07 | IC50 at 72 h [2]: 46 µM | pIC50 (HCT-116): 4.64 | pIC50 (HCT 116 TP53(-/-)): 4.59

CC(C)[C@@H]1CC[C@]2(C(=O)O)CC[C@]3(C)[C@H](CC[C@@H]4[C@@]5(C)Cc6c(C(F)(F)F)cc7c(c6C(C)(C)[C@@H]5CC[C@]43C)C(=O)N(c3ccccc3)C7=O)[C@@H]12
pIC50 (U2OS): < 4.30 | pIC50 (A549): < 4.30 | IC50 at 72 h [1]: > 50 µM | pIC50 (K562): < 4.30 | pIC50 (CCRF-CEM): < 4.30 | IC50 at 72 h [2]: > 50 µM | pIC50 [3]: < 4.30 | pIC50 (CEM-DNR): < 4.30 | pIC50 (HCT-116): < 4.30 | pIC50 (HCT 116 TP53(-/-)): < 4.30

C[C@H]1[C@H](C)CC[C@]2(C(=O)O)CC[C@]3(C)C(=CC[C@@H]4[C@@]5(C)CC(C(=O)C(F)(F)F)C(=O)C(C)(C)[C@@H]5CC[C@]43C)[C@H]12 (some centres undefined)
pIC50 (U2OS): < 4.30 | pIC50 (A549): 4.64 | IC50 at 72 h [1]: > 50 µM | pIC50 (K562): 4.64 | pIC50 (CCRF-CEM): 5.08 | IC50 at 72 h [2]: > 50 µM | pIC50 (HCT-116): 4.46 | pIC50 (HCT 116 TP53(-/-)): 4.37
